# Measured values taken from publication PMC3510080, “Identification of Compounds with Anti-Proliferative Activity against Trypanosoma brucei brucei Strain 427 by a Whole Cell Viability Based HTS Campaign” (PLoS Neglected Tropical Diseases, 2012).
# “And” between values parts separate entries of the source, which are not always exact repeats. Equal values may be shown once.
# Test system: T.b. brucei bloodstream form lister 427
# Assay: T.b. brucei Alamar Blue viability estimation assay (384-well HTS, retest and rescreen)
# Format: cell-based, Trypanosoma brucei brucei
# Conditions: not given
# Protocol: T.b. brucei lister 427 cells were maintained in log phase growth in 25 cm^2 tissue culture flasks (Corning, NY, USA) by sub-culturing at either 24 or 48 hour intervals. Cells were grown in HMI-9 medium, supplemented with 10% fetal calf serum (FCS) and 100 IU/ml penicillin/streptomycin (Invitrogen, Carlsbad, California, USA) with incubation at 5% CO2 at 37°C in humidified conditions. HEK293 cells were maintained in high glucose DMEM with L-glutamine, supplemented with 1× non-essential amino acids (NEAA; Invitrogen, USA) and 1 mM sodium pyruvate. Growth conditions were in 5% CO2 at 37°C, under humidified conditions.
# All reagent and cell additions were made with a Multidrop liquid handler (Thermo Scientific, Newington, NH, USA) under sterile conditions. Fifty-five microliters of 2000 cells/mL of T.b. brucei in HMI-9 medium were added to a black, clear-bottomed 384-well lidded plate (BD Biosciences, Franklin Lanes, NJ, USA). Cells were incubated for 24 hours at 37°C in an atmosphere of 5% CO2 before addition of 5 µl of compounds/DMSO for control wells. Compounds suspended in 100% DMSO or 100% DMSO as controls were pre-diluted 1∶21 in high glucose DMEM without FCS by using a Minitrack robotic liquid handler (PerkinElmer, Waltham, MA, USA). Five microliters of diluted sample was added to the plate to give a final DMSO concentration of 0.417% in the assay. Cells were incubated for an additional 48 hours at 37°C. Ten microliters of 70% Alamar Blue (Biosource, Bethesda, MD, USA) was added to each well (diluted in HMI-9 medium supplemented with 10% FCS) to a final concentration of 10% in the assay. The plate was incubated for two hours under the same conditions, then incubated for 22 hours in the dark at room temperature. Wells were read at 535 nm (excitation) and 590 nm (emission) wavelengths on a Victor II Wallac plate reader (PerkinElmer, USA). Specific dilutions are explained further in the primary and retest assay methodology. Reference drugs used in the assay were pentamidine (Sigma-Aldrich, St Louis, MO, USA), diminazene aceturate (Sigma-Aldrich, USA) and puromycin (Calbiochem, San Deigo, CA, USA). Pentamidine is used to treat patients with HAT and diminazene is a veterinary drug used against T.b. brucei to combat infections in cattle.
# Primary screening of the library, consisting of 87,296 compounds in two hundred and forty eight 384-well plates, was undertaken in single point against T.b. brucei. Stock solutions consisted of test compound at a concentration of 5 mM in 100% DMSO. One µl of each compound stock solution was diluted by the addition of 40 µl of dilution medium (high glucose DMEM without FCS) by a multidrop liquid handler (Thermo Scientific, USA). A 5 µl sample of this diluted solution was then added to the trypanosome assay plate. The final concentration of test compound in the assay was […] and that of DMSO was 0.42% v/v. Compounds were screened over a total of 11 days, at an average of 80 plates per day, taking into consideration that the assay incubation was 3 days total. Test compounds were added to plates in batches of 20 at two hour intervals, to maintain the timing of additions and reads.
# Compound activity was calculated as the percentage inhibition in relation to positive and negative controls. […] These in-plate negative controls were used in an effort to normalise compound activity in relation to any plate to plate variation in the assay signal. A whole 384-well control plate was included in each day's screening, one per 20 compound plates containing half a plate of 2 µM pentamidine for the positive assay control, and half a plate of 0.42% v/v DMSO as a negative control. The positive assay control was used to calculate compound activity for batches of 20 compound plates. As well providing the positive control data, these whole plate controls were used for the calculation of the Z' to measure the reproducibility of the assay.
row,Compound,Selectivity Index T.B
1,"N=C(N)c1ccc(OCCCCCOc2ccc(C(=N)N)cc2)cc1 [Pentamidine, pentamidine, reference compound]",>283
2,"COc1ccc(C[C@H](N)C(=O)N[C@H]2[C@@H](O)[C@H](n3cnc4c(N(C)C)ncnc43)O[C@@H]2CO)cc1 [Puromycin, puromycin, reference compound]",8.90

# Same assay, conditions: 13 control plates, triplicate dose-response; read-out: IC50 of reference compounds, primary screening campaign
row,Compound,IC50
1,"COc1ccc(C[C@H](N)C(=O)N[C@H]2[C@@H](O)[C@H](n3cnc4c(N(C)C)ncnc43)O[C@@H]2CO)cc1 [Puromycin, puromycin, reference compound]",61.9 ± 6.8 nM

# Same assay, conditions: HEK293 IC50 / T.b. brucei IC50; > if less than 50% activity at 75.8 µM in HEK293
row,Compound,Selectivity Index T.B
1,CCc1ccccc1N=C(NCCN1CCOCC1)NC(=O)c1ccccc1 [Compound 8],>29.0
2,Cc1cc(O)nc(-n2nc(C)cc2NC(=O)C2CCCC2)n1 [Compound 4],25 and 24.6
3,CC(C)(C)C(=O)NCCc1csc(-c2cccc(F)c2)n1 [Compound 1],>96.0

# Same assay, conditions: Trypanosoma brucei, 13 control plates, triplicate dose-response; read-out: IC50 of reference compounds, primary screening campaign
row,Compound,IC50
1,"N=C(N)c1ccc(OCCCCCOc2ccc(C(=N)N)cc2)cc1 [Pentamidine, pentamidine, reference compound]",14.7 ± 4.7 nM
2,"COc1ccc(C[C@H](N)C(=O)N[C@H]2[C@@H](O)[C@H](n3cnc4c(N(C)C)ncnc43)O[C@@H]2CO)cc1 [Puromycin, puromycin, reference compound]",61.9 ± 6.8 nM

# Same assay, conditions: Trypanosoma brucei, Alamar Blue-based HTS assay format, run with time to kill study; read-out: Activity (IC50 value) AB assay
row,Compound,IC50
1,"N=C(N)c1ccc(OCCCCCOc2ccc(C(=N)N)cc2)cc1 [Pentamidine, pentamidine, reference compound]",5.81 ± 0.707 nM
2,CC(C)(C)C(=O)NCCc1csc(-c2cccc(F)c2)n1 [Compound 1],1100 ± 65.1 nM
3,"COc1ccc(C[C@H](N)C(=O)N[C@H]2[C@@H](O)[C@H](n3cnc4c(N(C)C)ncnc43)O[C@@H]2CO)cc1 [Puromycin, puromycin, reference compound]",64.1 ± 0.24 nM

# Same assay, conditions: Trypanosoma brucei, during rescreening of resynthesized compounds; read-out: Reference Compound Activity T.B (IC50)
row,Compound,IC50
1,"N=C(N)c1ccc(OCCCCCOc2ccc(C(=N)N)cc2)cc1 [Pentamidine, pentamidine, reference compound]",3.52 ± 0.36 nM

# Same assay, conditions: Trypanosoma brucei, re-synthesised/re-purchased compounds; three experiments, two replicates each; read-out: Compound activity T.B (IC50)
row,Compound,IC50
1,CCc1ccccc1N=C(NCCN1CCOCC1)NC(=O)c1ccccc1 [Compound 8],2600 nM
2,CC(C)(C)C(=O)NCCc1csc(-c2cccc(F)c2)n1 [Compound 1],790 nM

# Same assay, conditions: Trypanosoma brucei, read-out: Compound activity T.B (IC50), re-synthesised/re-purchased compounds; three experiments, two replicates each
row,Compound,IC50
1,Cc1cc(O)nc(-n2nc(C)cc2NC(=O)C2CCCC2)n1 [Compound 4],3100 nM

# Same assay, conditions: Trypanosoma brucei, read-out: Reference Compound Activity T.B (IC50), during rescreening of resynthesized compounds
row,Compound,IC50
1,"COc1ccc(C[C@H](N)C(=O)N[C@H]2[C@@H](O)[C@H](n3cnc4c(N(C)C)ncnc43)O[C@@H]2CO)cc1 [Puromycin, puromycin, reference compound]",58.4 ± 0.769 nM

# Same assay, conditions: Trypanosoma brucei, reference compounds; read-out: IC50 against T.b. brucei, retest screening campaign
row,Compound,IC50
1,"N=C(N)c1ccc(OCCCCCOc2ccc(C(=N)N)cc2)cc1 [Pentamidine, pentamidine, reference compound]",7.8 ± 3.6 nM
2,"COc1ccc(C[C@H](N)C(=O)N[C@H]2[C@@H](O)[C@H](n3cnc4c(N(C)C)ncnc43)O[C@@H]2CO)cc1 [Puromycin, puromycin, reference compound]",138 ± 15.7 nM

# Same assay, conditions: Trypanosoma brucei, retest campaign from stock solutions, duplicate; read-out: Retest IC50 T.b.brucei
row,Compound,IC50
1,CC(C)(C)C(=O)NCCc1csc(-c2cccc(F)c2)n1 [Compound 1],441 nM

# Same assay, conditions: re-synthesised/re-purchased compounds; three experiments, two replicates each; read-out: Compound activity T.B (IC50)
row,Compound,IC50
1,CCc1ccccc1N=C(NCCN1CCOCC1)NC(=O)c1ccccc1 [Compound 8],2610 ± 320 nM
2,Cc1cc(O)nc(-n2nc(C)cc2NC(=O)C2CCCC2)n1 [Compound 4],3080 ± 290 nM
3,CC(C)(C)C(=O)NCCc1csc(-c2cccc(F)c2)n1 [Compound 1],785 ± 82.9 nM

# Same assay, conditions: retest campaign, HEK293 IC50 / T.b. brucei IC50
row,Compound,Estimated Selectivity Index
1,CC(C)(C)C(=O)NCCc1csc(-c2cccc(F)c2)n1 [Compound 1],94.6
2,"COc1ccc(C[C@H](N)C(=O)N[C@H]2[C@@H](O)[C@H](n3cnc4c(N(C)C)ncnc43)O[C@@H]2CO)cc1 [Puromycin, puromycin, reference compound]",less than 10

# Same assay, conditions: single point, 10.2 µM, inhibition relative to controls
row,Compound,Primary Screening Activity 10.2µM (%)
1,CC(C)(C)C(=O)NCCc1csc(-c2cccc(F)c2)n1 [Compound 1],100%

# Test system: P. falciparum K1 strain
# Assay: P. falciparum 3H-hypoxanthine incorporation assay; SI versus L6 cells
# Format: cell-based, Plasmodium falciparum
# Conditions: Plasmodium falciparum, K1, L6; read-out: Compound activity P.F (IC50)
# Protocol: L6 rat skeletal myoblasts, [29] were purchased from the American Type Culture Collection (ATCC, Rockville, MD, USA; ATCC number CRL 1458). This cell line was used for cytotoxicity testing to calculate an SI against T.b. rhodesiense and screened alongside the T.b. rhodesiense, P. falciparum, T. cruzi and L. donovani assays. L6 were also the host cells for the T. cruzi assay. Assays were performed in 96-well microtiter plates, each well containing 100 µl of RPMI 1640 medium supplemented with 1% L-glutamine (200 mM), 10% FCS, and 4000 L6 cells. Serial drug dilutions of eleven 3-fold dilution steps covering a range from 100 to 0.002 µg/ml were prepared. After 70 hours of incubation the plates were inspected under an inverted microscope to assure growth of the controls and sterile conditions. Ten µl of resazurin solution (resazurin, 12.5 mg in 100 ml double-distilled water) was then added to each well and the plates incubated for another 2 hours. Then the plates were read with a Spectramax Gemini XS microplate fluorometer (Molecular Devices Cooperation, Sunnyvale, CA, USA) using an excitation wavelength of 536 nm and an emission wavelength of 588 nm. Data was analysed using the microplate reader software Softmax Pro (Molecular Devices, USA). Podophyllotoxin was used as a positive control in the assay.
# Compounds dissolved in DMSO at 10 mg/ml were added to parasite cultures incubated in RPMI 1640 medium without hypoxanthine, supplemented with HEPES (5.94 g/l), NaHCO3 (2.1 g/l), neomycin (100 U/ml), Albumax (5 g/l) and washed human A^+ red blood cells at 2.5% haematocrit (0.3% parasitaemia). Serial drug dilutions of eleven 3-fold dilution steps covering a range from 100 to 0.002 µg/ml were prepared. The 96-well plates were incubated in a humidified atmosphere at 37°C; 4% CO2, 3% O2, 93% N2. After 48 hours, 50 µl of ^3H-hypoxanthine ( = 0.5 µCi) was added to each well of the plate. The plates were incubated for a further 24 hours under the same conditions. The plates were then harvested with a Betaplate cell harvester (Wallac, Zurich, Switzerland), and the red blood cells transferred onto a glass fibre filter then washed with distilled water. The dried filters were inserted into a plastic foil with 10 ml of scintillation fluid, and counted in a Betaplate liquid scintillation counter (Wallac, Zurich, Switzerland). IC50 values were calculated from sigmoidal inhibition curves using Microsoft Excel.
row,Compound,IC50
1,CCc1ccccc1N=C(NCCN1CCOCC1)NC(=O)c1ccccc1 [Compound 8],5330 ± 2040 nM
2,Cc1cc(O)nc(-n2nc(C)cc2NC(=O)C2CCCC2)n1 [Compound 4],8170 ± 4000 nM
3,CC(C)(C)C(=O)NCCc1csc(-c2cccc(F)c2)n1 [Compound 1],35400 ± 2750 nM

# Same assay, conditions: relative to L6 cells
row,Compound,Selectivity Index P.F
1,CCc1ccccc1N=C(NCCN1CCOCC1)NC(=O)c1ccccc1 [Compound 8],24.8
2,Cc1cc(O)nc(-n2nc(C)cc2NC(=O)C2CCCC2)n1 [Compound 4],0.110
3,CC(C)(C)C(=O)NCCc1csc(-c2cccc(F)c2)n1 [Compound 1],1.76

# Test system: T.b. brucei
# Assay: Determination of the cidal action of compounds (MIC and parasite counts)
# Format: cell-based, Trypanosoma brucei brucei
# Conditions: Trypanosoma brucei; minimum concentration with plateau of activity (>95%) in Alamar Blue concentration response curve; read-out: minimum inhibitory concentration (MIC)
# From the text: The MIC was extrapolated as the minimum concentration at which there was a plateau of activity in the assay (>95% activity).
row,Compound,MIC
1,"N=C(N)c1ccc(OCCCCCOc2ccc(C(=N)N)cc2)cc1 [Pentamidine, pentamidine, reference compound]",0.04 µM
2,CC(C)(C)C(=O)NCCc1csc(-c2cccc(F)c2)n1 [Compound 1],3.97 µM
3,"COc1ccc(C[C@H](N)C(=O)N[C@H]2[C@@H](O)[C@H](n3cnc4c(N(C)C)ncnc43)O[C@@H]2CO)cc1 [Puromycin, puromycin, reference compound]",1.15 µM

# Same assay, conditions: cell counts at 24, 48 and 72 hours (29 hours from Presto Blue)
row,Compound,incubation time at the MIC for complete clearance of T.b. brucei parasites
1,"N=C(N)c1ccc(OCCCCCOc2ccc(C(=N)N)cc2)cc1 [Pentamidine, pentamidine, reference compound]",72 h
2,"COc1ccc(C[C@H](N)C(=O)N[C@H]2[C@@H](O)[C@H](n3cnc4c(N(C)C)ncnc43)O[C@@H]2CO)cc1 [Puromycin, puromycin, reference compound]",24 h

# Same assay, conditions: parasites cleared by 72 hours at MIC
row,Compound,action cidal or static at the MIC
1,CC(C)(C)C(=O)NCCc1csc(-c2cccc(F)c2)n1 [Compound 1],cidal

# Test system: mammalian cell lines
# Assay: not given
# Conditions: cited from earlier work
row,Compound,activity reported for some mammalian cell lines
1,"N=C(N)c1ccc(OCCCCCOc2ccc(C(=N)N)cc2)cc1 [Pentamidine, pentamidine, reference compound]",low µM activity
